Results reported in the supplement of paper PMC6045584.
± gives the standard deviation of the averaged measurements.

What was measured:
DASATINIB = compound: Cc1nc(Nc2ncc(C(=O)Nc3c(C)cccc3Cl)s2)cc(N2CCN(CCO)CC2)n1 [DASATINIB]; assay: surviving fraction relative to DMSO-only wells; higher = less growth inhibition; conditions: exposure time: 5 days
How it was run: (§1)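 Log-phase tumour cell lines were seeded at 250–500 cells per well in 384-well plates. After 24 hours they were exposed continuously for five days to inhibitors at 0.5, 1, 5, 10, 50, 100, 500 and 1000 nM. Viability was read by CellTiter-Glo luminescence after 10 minutes at room temperature, and surviving fraction is luminescence normalised to the median of DMSO-only wells. Each line was screened three times and kept only if replicate Pearson r >0.7 and median Z' >0.3.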

[1] = compound: CNCc1ccc(-c2[nH]c3cc(F)cc4c3c2CCNC4=O)cc1; assay: as above; conditions: exposure time: 5 days
How it was run: as §1

Row | Test System | surviving fraction (DASATINIB; 0.5 nM) | surviving fraction (DASATINIB; 1 nM) | surviving fraction (DASATINIB; 5 nM) | surviving fraction (DASATINIB; 10 nM) | surviving fraction (DASATINIB; 50 nM) | surviving fraction (DASATINIB; 100 nM) | surviving fraction (DASATINIB; 500 nM) | surviving fraction (DASATINIB; 1000 nM) | surviving fraction ([1]; 0.5 nM) | surviving fraction ([1]; 1 nM) | surviving fraction ([1]; 5 nM) | surviving fraction ([1]; 10 nM) | surviving fraction ([1]; 50 nM) | surviving fraction ([1]; 100 nM) | surviving fraction ([1]; 500 nM) | surviving fraction ([1]; 1000 nM)
1 | MDAMB453 BREAST | 1.03 ± 0.046 | 0.995 ± 0.047 | 1.06 ± 0.018 | 1 ± 0.047 | 1.03 ± 0.025 | 1.02 ± 0.052 | 1 ± 0.036 | 1.02 ± 0.091 | 0.991 ± 0.071 | 1.01 ± 0.096 | 1.05 ± 0.049 | 0.979 ± 0.093 | 0.919 ± 0.062 | 0.957 ± 0.06 | 0.892 ± 0.022 | 0.696 ± 0.017
2 | MDAMB436 BREAST | 0.793 ± 0.052 | 0.861 ± 0.061 | 0.811 ± 0.091 | 0.826 ± 0.094 | 0.824 ± 0.082 | 0.775 ± 0.057 | 0.783 ± 0.061 | 0.757 ± 0.034 | 0.882 ± 0.12 | 0.925 ± 0.083 | 0.874 ± 0.092 | 0.82 ± 0.1 | 0.62 ± 0.11 | 0.587 ± 0.053 | 0.542 ± 0.097 | 0.531 ± 0.064
3 | SIHA CERVIX | 0.876 ± 0.016 | 0.806 ± 0.013 | 0.74 ± 0.026 | 0.742 ± 0.019 | 0.772 ± 0.046 | 0.648 ± 0.052 | 0.561 ± 0.0062 | 0.543 ± 0.027 | 0.984 ± 0.028 | 1.06 ± 0.13 | 1.09 ± 0.03 | 1.01 ± 0.035 | 0.907 ± 0.064 | 0.934 ± 0.023 | 1.03 ± 0.021 | 0.832 ± 0.037
4 | OS25HAL BONE | 0.88 ± 0.03 | 0.849 ± 0.013 | 0.849 ± 0.035 | 0.747 ± 0.035 | 0.686 ± 0.05 | 0.599 ± 0.074 | 0.45 ± 0.073 | 0.363 ± 0.045 | 0.98 ± 0.029 | 1.1 ± 0.024 | 1.017 ± 0.01 | 1.01 ± 0.032 | 0.954 ± 0.034 | 1.01 ± 0.052 | 1.003 ± 0.0071 | 0.98 ± 0.039
5 | BT20 BREAST | 0.767 ± 0.056 | 0.729 ± 0.02 | 0.699 ± 0.026 | 0.739 ± 0.11 | 0.774 ± 0.13 | 0.798 ± 0.061 | 0.752 ± 0.034 | 0.705 ± 0.036 | 1.09 ± 0.095 | 1.05 ± 0.055 | 1.03 ± 0.081 | 1.04 ± 0.059 | 0.792 ± 0.14 | 0.814 ± 0.046 | 0.815 ± 0.11 | 0.872 ± 0.014
6 | HCT15 LARGE INTESTINE | 0.827 ± 0.034 | 0.814 ± 0.04 | 0.789 ± 0.06 | 0.73 ± 0.094 | 0.702 ± 0.044 | 0.56 ± 0.034 | 0.363 ± 0.083 | 0.326 ± 0.046 | 1.03 ± 0.075 | 1.01 ± 0.16 | 1.05 ± 0.13 | 1.05 ± 0.051 | 0.982 ± 0.1 | 0.988 ± 0.093 | 0.996 ± 0.095 | 1.03 ± 0.13
7 | A549 LUNG | 0.915 ± 0.0066 | 0.9003 ± 0.0076 | 0.879 ± 0.02 | 0.859 ± 0.018 | 0.858 ± 0.033 | 0.8223 ± 0.0025 | 0.646 ± 0.028 | 0.631 ± 0.012 | 1.1 ± 0.039 | 1.07 ± 0.03 | 1.057 ± 0.0071 | 1.06 ± 0.029 | 1.14 ± 0.066 | 1.05 ± 0.06 | 1.08 ± 0.027 | 1.08 ± 0.034
8 | YAMATO SYNOVIAL | 0.822 ± 0.18 | 0.729 ± 0.097 | 0.836 ± 0.19 | 0.771 ± 0.2 | 0.848 ± 0.13 | 0.753 ± 0.11 | 0.63 ± 0.039 | 0.677 ± 0.074 | 1.32 ± 0.043 | 1.35 ± 0.12 | 1.28 ± 0.066 | 1.3 ± 0.1 | 0.949 ± 0.13 | 0.982 ± 0.11 | 0.794 ± 0.022 | 0.811 ± 0.13
9 | SCC003 HEADNECK | 0.877 ± 0.036 | 0.843 ± 0.068 | 0.899 ± 0.13 | 0.813 ± 0.076 | 0.827 ± 0.025 | 0.654 ± 0.046 | 0.263 ± 0.014 | 0.149 ± 0.023 | 1.03 ± 0.045 | 1.05 ± 0.016 | 1.1 ± 0.059 | 1.05 ± 0.078 | 1.07 ± 0.047 | 1.05 ± 0.091 | 0.99 ± 0.11 | 0.918 ± 0.057
10 | VCAP PROSTATE | 0.856 ± 0.048 | 0.89 ± 0.014 | 0.923 ± 0.026 | 0.943 ± 0.091 | 1.01 ± 0.12 | 1.02 ± 0.11 | 1.02 ± 0.061 | 0.932 ± 0.062 | 1.01 ± 0.11 | 1.04 ± 0.14 | 1.06 ± 0.21 | 1.04 ± 0.052 | 0.921 ± 0.12 | 1.02 ± 0.07 | 0.881 ± 0.15 | 0.908 ± 0.092
11 | HELA CERVIX | 0.937 ± 0.085 | 0.934 ± 0.057 | 0.948 ± 0.037 | 0.909 ± 0.029 | 1.02 ± 0.029 | 1.04 ± 0.011 | 1.04 ± 0.061 | 1.06 ± 0.037 | 1.09 ± 0.093 | 1.09 ± 0.08 | 1.08 ± 0.054 | 1.03 ± 0.07 | 1.16 ± 0.11 | 1.12 ± 0.16 | 1.14 ± 0.079 | 1.09 ± 0.071
12 | C33A CERVIX | 0.869 ± 0.078 | 0.772 ± 0.044 | 0.521 ± 0.034 | 0.419 ± 0.008 | 0.219 ± 0.026 | 0.182 ± 0.0036 | 0.157 ± 0.0025 | 0.172 ± 0.0091 | 0.991 ± 0.071 | 0.993 ± 0.078 | 1.02 ± 0.085 | 0.937 ± 0.095 | 1.09 ± 0.13 | 0.963 ± 0.041 | 1.25 ± 0.024 | 0.707 ± 0.0089
13 | HU09 BONE | 0.863 ± 0.056 | 0.845 ± 0.025 | 0.805 ± 0.086 | 0.75 ± 0.056 | 0.392 ± 0.051 | 0.214 ± 0.019 | 0.129 ± 0.007 | 0.12 ± 0.018 | 1.04 ± 0.068 | 0.977 ± 0.052 | 1.04 ± 0.072 | 0.991 ± 0.066 | 0.965 ± 0.24 | 0.889 ± 0.13 | 0.757 ± 0.051 | 0.669 ± 0.074
14 | SCC47 HEADNECK | 0.961 ± 0.073 | 0.965 ± 0.067 | 0.971 ± 0.065 | 0.9 ± 0.039 | 0.698 ± 0.0083 | 0.38 ± 0.027 | 0.078 ± 0.011 | 0.0587 ± 0.0074 | 1.04 ± 0.067 | 1.03 ± 0.042 | 1.08 ± 0.048 | 1.12 ± 0.025 | 1.04 ± 0.07 | 1.05 ± 0.074 | 1.05 ± 0.032 | 0.987 ± 0.063
15 | SUM149.B1*.S BREAST | 0.905 ± 0.034 | 0.879 ± 0.036 | 0.811 ± 0.024 | 0.75 ± 0.047 | 0.5 ± 0.018 | 0.358 ± 0.0082 | 0.332 ± 0.0043 | 0.353 ± 0.032 | 1.12 ± 0.023 | 1.1 ± 0.022 | 1.07 ± 0.045 | 1.1 ± 0.045 | 1.01 ± 0.04 | 1.02 ± 0.033 | 0.94 ± 0.053 | 1 ± 0.056
16 | MG63 BONE | 0.899 ± 0.035 | 0.901 ± 0.013 | 0.785 ± 0.015 | 0.691 ± 0.0046 | 0.469 ± 0.0076 | 0.357 ± 0.012 | 0.204 ± 0.0021 | 0.194 ± 0.0071 | 1.03 ± 0.052 | 1.04 ± 0.032 | 1.05 ± 0.034 | 1.06 ± 0.058 | 1.03 ± 0.03 | 1.02 ± 0.028 | 0.975 ± 0.031 | 0.938 ± 0.023
17 | SAOS2 BONE | 0.842 ± 0.055 | 0.788 ± 0.024 | 0.62 ± 0.017 | 0.511 ± 0.043 | 0.475 ± 0.047 | 0.384 ± 0.023 | 0.274 ± 0.032 | 0.256 ± 0.015 | 1.12 ± 0.044 | 1.14 ± 0.08 | 1.14 ± 0.02 | 1.12 ± 0.16 | 0.844 ± 0.061 | 0.833 ± 0.069 | 0.747 ± 0.1 | 0.662 ± 0.021
18 | SYO1 SYNOVIAL | 0.777 ± 0.024 | 0.758 ± 0.041 | 0.651 ± 0.03 | 0.566 ± 0.07 | 0.415 ± 0.02 | 0.383 ± 0.026 | 0.351 ± 0.011 | 0.34 ± 0.017 | 0.954 ± 0.081 | 0.921 ± 0.022 | 0.842 ± 0.014 | 0.8 ± 0.019 | 0.655 ± 0.029 | 0.587 ± 0.032 | 0.455 ± 0.037 | 0.351 ± 0.04
19 | OSHN BONE | 0.889 ± 0.016 | 0.9163 ± 0.0047 | 0.865 ± 0.035 | 0.83 ± 0.014 | 0.915 ± 0.012 | 0.891 ± 0.023 | 0.662 ± 0.13 | 0.46 ± 0.17 | 1.03 ± 0.028 | 1.06 ± 0.028 | 1.01 ± 0.031 | 1.02 ± 0.048 | 0.945 ± 0.031 | 0.933 ± 0.029 | 0.959 ± 0.02 | 0.857 ± 0.036
20 | SG31 HEADNECK | 0.892 ± 0.091 | 0.878 ± 0.19 | 0.722 ± 0.013 | 0.649 ± 0.081 | 0.535 ± 0.02 | 0.44 ± 0.042 | 0.391 ± 0.045 | 0.373 ± 0.016 | 1.31 ± 0.25 | 1.14 ± 0.13 | 1.11 ± 0.15 | 1.12 ± 0.092 | 0.922 ± 0.12 | 0.845 ± 0.061 | 0.929 ± 0.12 | 0.947 ± 0.09
